Entries after “also recorded” stand apart in the source; their conditions may differ. Like-named read-outs stand apart in the source and are kept apart here.
Key:
[1] = assay type: in vivo, marmosets; conditions: for T1 (mean), Blood: 0.3 ml/kg, pre-contrast 507
[2] = system: isolated perfused rabbit heart; assay: Intracoronary cardiotoxicity in the isolated perfused rabbit heart (IPRH)
Experimental: (§1) In addition, the cardiotoxic effects of single bolus intracoronary arterial injections of 4, 8, 16 or 32 mg MnCl2 were evaluated in the isolated perfused rabbit heart (IPRH).
(§2) The aqueous vehicle for the suspension of negatively charged liposomes consisted of 0.9% NaCl buffered with 0.003 M sodium phosphate, pH 7.4. The lipid concentration was 50 μmol/ml.
A total of 8 female, New Zealand albino rabbits, with body weights ranging from 1.97-2.96 kg were used in the study.
Rabbits were sacrificed by cervical dislocation, the hearts excised and coronary perfusion was performed at constant pressure via the aortic root using an oxygenated physiological salt solution (Chenoweth's solution) heated to 37° C. A 0.8%, w/v, solution of MnCl2 was heated to 37° C. and intracoronary bolus injections of 0.5, 1.0, 2.0 and 4.0 ml were made in each of the six hearts via a sidearm of the perfusion apparatus. A period of time sufficient to allow the heart to stabilize was allowed between injections. The heart rate (HR), contractile force (CF) and electrocardiogram (ECG) were recorded on a Grass Model 7 polygraph. The maximal percentage changes from pre-injection control values for HR and CF were determined during intervals of […] and 15-30 seconds after injection. The percentage changes from control HR and CF were also recorded at 1, 2, 3 and 4 minutes after injection. The ECG was examined for arrhythmias. When ventricular fibrillation (VF) occurred, no calculations were performed with CF and HR data from that injection.

[3] = Acute intravenous toxicity in mice (Example 4); conditions: for Cumulative Mortalities/Number Dosed, Female / Cumulative Mortalities/Number Dosed, Male: 7 days; for LD50: 7-day observation
Experimental: as §1, §2
A total of 60 mice, 30 males (body weight range of 20-33.5 g) and 30 females (body weight range of 19.1-29.7 g) were used. Fifty of the mice were Swiss ICR, CD-1, obtained from Charles River and ten were Swiss CF-1 obtained from Sasco (Omaha, Neb.).
The four test substances were administered via the lateral tail vein of the mouse at a rate of 1 ml/min with the following doses given.

[4] = Biodistribution of 54MnNa2 EDTA and 54Mn-L in rats (Example 5); assay type: in vivo, Sprague-Dawley rats
Description: A total of forty Sprague-Dawley rats (20 male, 217-295 g; 20 female, 151-208 g; Charles River) were used. Drinking water was provided ad libitum. The animals, 2 males and 2 females per group, were selected randomly from their cages and were identified with indelible ink numbers at tail bases before test substance administration.
Rats were divided into 10 groups consisting of 2 male and 2 female rats per group. […] Immediately after dosing, rats were housed in individual metabolism cages. Ground Purina Laboratory Chow and water were supplied ad libitum to animals sacrificed at 24 and 48 hr after treatment. Rats from both ^54 NmNa2 EDTA and ^54 Mn-L treatment groups were sacrificed by cervical dislocation at 0.5, 2, 4, 24 and 48 hr after treatment, and the following samples were obtained: injection site, blood, liver, lung, spleen, heart, kidneys, salivary gland (submaxillary), brain, bone with marrow, muscle and fat. Urine samples were obtained from animals sacrificed at all intervals of 2 hr or more after injection and fecal samples were obtained from animals sacrificed at 24 and 48 hr after treatment. […] The entire organ weights were determined for the remaining tissues.
Levels of radioactivity in the biological specimens and aliquots of the injected test substances were determined using a gamma scintillation spectrometer (Model 1085, Nuclear Chicago Corp., Des Plaines, Ill.). Results were calculated on a percent dose/organ (or fluid) and a percent dose/g (or ml) basis using an HP-85 desk top computer (Hewlett Packard, Fort Collins, Colo.).
Kinetic data for the elimination of radioactivity from liver, spleen, kidneys, heart and bone with marrow were curve fitted by the peeling and least-square methods, to mono or bi-exponential equations: [formula]
The half-life (t 1/2) for each elimination phase was calculated as 0.693/Ki. The square of the correlation coefficient (r^2) for each elimination phase was calculated as an indication of variability.

[5] = 32 mg dose, 0-15 s, only 1 heart, all others had VF

In the case of `O.O.O=C([O-])CN(CC(=O)[O-])[C@@H]1CCCC[C@H]1N(CC(=O)[O-])CC(=O)[O-].[Mn+2].[Na+].[Na+]` (relative stereo) [EXAMPLE 1 (E), disodium (trans-1,2-diaminocyclohexane-N,N,N',N'-tetraacetate) manganese dihydrate], the “Blood (5 min) and liver T1 values (in words)” value ([1]; 0.3 ml/kg i.v.) was “substantially reduced”, the “several other tissue T1's (in words)” value ([1]; 0.3 ml/kg i.v.) was “slightly reduced” and the “T1 (mean), Blood” value ([1]; 5 minute) was 375. The “T1 (mean), Blood” value ([1]; 10 minute) was 454, the “Tissue T1 (mean), Bladder” value ([1]; 15 min after 0.3 ml/kg) was 217 and the “Tissue T1 (mean), Fat” value ([1]; 15 min after 0.3 ml/kg) was 68. For the same compound, the “Tissue T1 (mean), Large Intestine” value ([1]; 15 min after 0.3 ml/kg) was 185, the “Tissue T1 (mean), Liver” value ([1]; 15 min after 0.3 ml/kg) was 32 and the “Tissue T1 (mean), Lung” value ([1]; 15 min after 0.3 ml/kg) was 280. The “Tissue T1 (mean), Pancreas” value ([1]; 15 min after 0.3 ml/kg) was 103, the “Tissue T1 (mean), Renal Cortex” value ([1]; 15 min after 0.3 ml/kg) was 152 and the “Tissue T1 (mean), Renal Medulla” value ([1]; 15 min after 0.3 ml/kg) was 209. The “Tissue T1 (mean), Skeletal Muscle” value ([1]; 15 min after 0.3 ml/kg) was 206, the “Tissue T1 (mean), Small Intestine” value ([1]; 15 min after 0.3 ml/kg) was 107 and the “Tissue T1 (mean), Spleen” value ([1]; 15 min after 0.3 ml/kg) was 221. The “Tissue T1 (mean), Stomach” value ([1]; 15 min after 0.3 ml/kg) was 145, the “Tissue T1 (mean), Heart” value ([1]; 15 min after 0.3 ml/kg (0.118 mmol Mn(II)/kg)) was 183 and the “T1 (mean), Blood” value ([1]; 15 minute) was 511. The Cardiovascular effects ([1]; in vivo, iv) was “minimal”.
With `[Cl][Mn][Cl]` [MnCl2, manganese (II) chloride] the “Incidence of Ventricular Fibrillation (VF)” value (shortened to “Incidence”) ([2]; 4 mg dose) was 0/6, the “Mean % Change in Contractile Force (CF)” value ([2]; 4 mg dose, 0-15 s) was -5% and the “Mean % Change in Heart Rate (HR)” value ([2]; 4 mg dose, 0-15 s) was -2%. The “Mean % Change in Contractile Force (CF)” value ([2]; 4 mg dose, 15-30 s) was -28%, the “Mean % Change in Heart Rate (HR)” value ([2]; 4 mg dose, 15-30 s) was -2% and the “Mean % Change in Contractile Force (CF)” value ([2]; 4 mg dose, 1 min) was -12%. The “Mean % Change in Contractile Force (CF)” value ([2]; 4 mg dose, 2 min) was “+5%”, the “Mean % Change in Heart Rate (HR)” value ([2]; 4 mg dose, 2 min) was -2% and the “Incidence” value ([2]; 8 mg dose) was 0/6. For the same compound, the “Mean % Change in Contractile Force (CF)” value ([2]; 8 mg dose, 0-15 s) was -74%, the “Mean % Change in Heart Rate (HR)” value ([2]; 8 mg dose, 0-15 s) was -8% and the “Mean % Change in Contractile Force (CF)” value ([2]; 8 mg dose, 15-30 s) was -38%. For the same compound, the “Mean % Change in Heart Rate (HR)” value ([2]; 8 mg dose, 15-30 s) was -7%, the “Mean % Change in Contractile Force (CF)” value ([2]; 8 mg dose, 1 min) was -17% and the “Mean % Change in Heart Rate (HR)” value ([2]; 8 mg dose, 1 min) was -7%. The “Mean % Change in Contractile Force (CF)” value ([2]; 8 mg dose, 2 min) was “+2%”, the “Mean % Change in Heart Rate (HR)” value ([2]; 8 mg dose, 2 min) was -6% and the “Incidence” value ([2]; 16 mg dose) was 2/6. For the same compound, the “Mean % Change in Contractile Force (CF)” value ([2]; 16 mg dose, 0-15 s) was -92%, the “Mean % Change in Heart Rate (HR)” value ([2]; 16 mg dose, 0-15 s) was -31% and the “Mean % Change in Contractile Force (CF)” value ([2]; 16 mg dose, 15-30 s) was -61%. The “Mean % Change in Heart Rate (HR)” value ([2]; 16 mg dose, 15-30 s) was -14%, the “Mean % Change in Contractile Force (CF)” value ([2]; 16 mg dose, 1 min) was -37% and the “Mean % Change in Heart Rate (HR)” value ([2]; 16 mg dose, 1 min) was -14%. The “Mean % Change in Contractile Force (CF)” value ([2]; 16 mg dose, 2 min) was -1%, the “Mean % Change in Heart Rate (HR)” value ([2]; 16 mg dose, 2 min) was -11% and the “premature ventricular contractions in hearts which did not fibrillate” value ([2]; 16 mg dose, during or immediately after injection) was “two of the four hearts”. For the same compound, the “Incidence” value ([2]; 32 mg dose) was 5/6, the “conduction block in the single heart which failed to fibrillate” value ([2]; 32 mg dose) was “complete A-V conduction block with ventricular standstill” and the “Mean % Change in Contractile Force (CF)” value [2, 5] was -100%. For the same compound, the “Mean % Change in Heart Rate (HR)” value [2, 5] was -100%, the “Mean % Change in Contractile Force (CF)” value ([2]; 32 mg dose, 15-30 s) was -64% and the “Mean % Change in Heart Rate (HR)” value ([2]; 32 mg dose, 15-30 s) was -17%. The “Mean % Change in Contractile Force (CF)” value ([2]; 32 mg dose, 1 min) was -33%, the “Mean % Change in Heart Rate (HR)” value ([2]; 32 mg dose, 1 min) was -17% and the “Mean % Change in Contractile Force (CF)” value ([2]; 32 mg dose, 2 min) was “+2%”. The “Mean % Change in Heart Rate (HR)” value ([2]; 32 mg dose, 2 min) was -14%, the “arrhythmias (in words)” value ([2]; 4-32 mg) was “dose-related incidence of arrhythmias; also recorded: conduction delays and ventricular arrhythmias” and the “effect on CF and HR (in words)” value ([2]; 4-32 mg, maximal within 0-15 seconds) was “Dose-related decreases in CF and HR; also recorded: dose-related depression of contractility and heart rate”. For the same compound, the “PR and QRS intervals” value ([2]; ECG, 4-32 mg) was “dose-related increases in PR and QRS intervals”, the “Cumulative Mortalities/Number Dosed, Female” value ([3]; 25 mg/kg i.v.) was 1/5 and the “Cumulative Mortalities/Number Dosed, Male” value ([3]; 25 mg/kg i.v.) was 3/5. For the same compound, the “Cumulative Mortalities/Number Dosed, Female” value ([3]; 31.25 mg/kg i.v.) was 4/5, the “Cumulative Mortalities/Number Dosed, Male” value ([3]; 31.25 mg/kg i.v.) was 2/5 and the “Cumulative Mortalities/Number Dosed, Female” value ([3]; 37.5 mg/kg i.v.) was 4/5. The “Cumulative Mortalities/Number Dosed, Male” value ([3]; 37.5 mg/kg i.v.) was 4/5, the “time of death after dosing was completed” value ([3]; all deaths with the exception of one (4 days)) was “one” and the “acute intravenous toxicity (in words)” value ([3]; intravenous, mice) was “high degree of acute toxicity”. The LD50 ([3]; intravenous, mice, 10080 min) was 28 mg/kg, the LD50 ([3]; intravenous, mice, listed as 1, 10080 min) was 28.0 mg/kg and the “LD50 as Mn(II)” value ([3]; intravenous, mice, 10080 min) was 0.22 mmol/kg of Mn(II). The cause of death ([3]; intravenous, mice, thoracotomy of one mouse) was “cardiac arrest”.
With `O=C([O-])CN(CCN(CC(=O)[O-])CC(=O)[O-])CC(=O)[O-].[54Mn+2].[Na+].[Na+]` [^54 MnNa2 EDTA, disodium (ethylenediaminetetraacetato) manganese (II)] the “distribution, percent dose/organ (in words)” value ([4]; 0.5-48 hr) was “distributed primarily to the liver, bone with marrow, muscle and kidneys”, the “bone and marrow half-life” value ([4]; bone and marrow) was > 100 h and the “heart half-life, monophasic elimination” value ([4]; heart) was “approximately 8 hr”. The “blood disappearance/clearance (in words)” value ([4]; intravenous) was “rapidly cleared from the blood”, the “share associated with rapid first phase renal elimination” value ([4]; kidney) was “Approximately 81%” and the “renal clearance t 1/2, initial rapid phase” value ([4]; kidney, biphasic) was < 1 h. The “renal clearance t 1/2, secondary slow phase” value ([4]; kidney, biphasic) was > 17 h, the “share associated with rapid first phase hepatic elimination” value ([4]; liver) was “Approximately 92%” and the “hepatic clearance t 1/2, initial rapid phase” value ([4]; liver, biphasic) was < 1 h. The “hepatic clearance t 1/2, secondary slow phase” value ([4]; liver, biphasic) was > 17 h, the “spleen half-life, monophasic elimination” value ([4]; spleen) was ~ 2 hr and the “dose eliminated in the urine” value ([4]; within 2 hr after treatment) was > 50%.

Source: patent publication US5407660A, “Diagnostic liposomal compositions for enhancing NMR imaging” (Mallinckrodt Medical, Inc., priority 1993, dated 1995)
